Series [1] concerns EPISKIN model of reconstructed human epidermis. Put plainly: MTT cell viability test on EPISKIN model (in vitro skin irritation). The series is classed as cell-based. As to the method:
2.1.1 EPISKIN™ model (EPISKIN-SM™), EPISKIN SNC Lyon, France, is a model of reconstructed human epidermis. The human keratinocytes are seeded on a dermal substitute consisting of a collagen type I matrix coated with type IV collagen. A highly differentiated and stratified epidermis model is obtained after a 13-day culture period comprising the basal, suprabasal, spinous and granular layers and a functional stratum corneum (Tinois et al., 1984). The model is used in the skin irritation applying the substances being examined at topical level to the epidermis and subsequently assessing cell viability.
10 μl of the solutions were applied to the surface of the epidermis for 15 minutes, followed by 42 hours of recovery.
VitroScreen is implementing a quality system in compliance with the GLP regulations (2004/9/CE and 2004/10/CE) in preparation of the GLP Audit and relative certification. The methods utilized in the study were entered in the list of VitroScreen methods. Following a validation study coordinated by ECVAM the Episkin test system was validated by the ESAC (27/04/07); this uses a model of epidermis reconstructed in vitro—EPISKIN—to assess skin irritation produced by chemical substances for hazard identification and R38 classification: cell viability is quantified after 15 min of exposure +42 h of recovery. Quantification of IL-1α with the ELISA method is part of the validated method for skin irritation as it allows the substances to be distinguished even when there is no decrease in cell viability.
The MTT test is considered an international standard for quantification of cytotoxicity (ISO 10993-5). The method allows quantification of the cytotoxic effect produced by the product through measuring cell viability. Cytotoxicity is quantified by measuring the decrease in cell viability compared to an untreated negative control. It is based on the metabolizing reaction which takes place between the salt of tetrazolium (MTT) and the mitochondrial enzymes (succinate dehydrogenase) after contact with the product for the various treatment times: only the viable cell can transform the salt of tetrazolium into the insoluble derivative (Formazan), reaction which is highlighted by the formation of a purple color at the bottom of the insert.
Metabolization of the salt takes place at the level of the basal cells of the epithelium in the area above the polycarbonate support.
The purple colored derivative is extracted in isopropanol and quantified spectrophotometrically at 570 nm.
At the end of treatment and post-incubation with the substances being examined, the EPISKIN models are transferred to 12 well plates, filled with 2 ml of MTT (used at the concentration of 0.3 mg/ml in the assay medium) and the test is conducted for 3 hours at 37° C., 5% CO2, 90% humidity.
The formazan is extracted from the tissue in Eppendorf tubes with 500 μl of acidified isopropanol (0.04 N HCL final concentration) with incubation in the dark under stirring for 4 hours at room temperature.
10 μl of the substances being examined, of the positive (SDS 5%) and negative (sterile water) control are applied to the surface of the epidermis.
The treated tissues are maintained at room temperature for 15 minutes (±0.5 minutes).
At the end of incubation the tissues are washed 2-3 times with PBS and placed in an incubator with fresh maintenance medium for 42 hours of recovery.
The TEER is measured post-treatment and the MTT test is then conducted for 3 hours at 37° C. and formazan is subsequently extracted for 4 hours as described in the methods.
At the end of the test 2×200 μl of sample for each well are transferred to 96 well plates and read spectrophotometrically at 570 nm.
The optical densities are recorded directly by the Microplate autoreader (TECAN INFINITE M-200), exported to Excel files and the cell viability % is calculated compared to the optical density of the negative control. […]
A general note: Tetrazolium dyes change colour on reduction, which living cells bring about.

Series [2] can be described thus: pH of the prepared solutions. The series is classed as physicochemical. As to conditions: positive control solution. As to the method: The solutions are prepared and the pH is measured.

For the molecule `CC1(C)[C@@H](O[C@H]2O[C@H](C(=O)O)[C@@H](O)[C@H](O)[C@H]2O[C@@H]2O[C@H](C(=O)O)[C@@H](O)[C@H](O)[C@H]2O)CC[C@]2(C)[C@H]3C(=O)C=C4[C@@H]5C[C@@](C)(C(=O)O)CC[C@]5(C)CC[C@@]4(C)[C@]3(C)CC[C@@H]12.N` [MAG, monoammonium glycyrrhizinate], the “irritation classification by predictive model” value in series [1] (MAG at 2%) is on record as “non-irritant”; in series [1] (MAG at 2%, listed as Mono-Ammonium Glycyrrhizate) it was “NON IRRITANT (NI)”; in series [1] (MAG at 5%) it was “non-irritant”; in series [1] (MAG at 5%, listed as Mono-Ammonium Glycyrrhizate), “NON IRRITANT (NI)”. In addition, in series [1] (MAG at 2%, 15 min exposure + 42 h recovery), the cytotoxic effects entry is given as “no cytotoxic effects”. In series [1] (MAG at 5%, 15 min exposure + 42 h recovery), the loss of viability was 20%.
Turning to `CCCCCCCCCCCCOS(=O)(=O)[O-].[Na+]` [SDS 5%, sodium dodecyl sulfate, reference compound], in series [1] (SDS 5%, 10 μl, 15 min exposure + 42 h recovery, vs negative control), the reduction in viability amounted to 80%. In series [1] (solution as tested, 15 min exposure + 42 h recovery, cut-off 50% viability, sulfate), the “irritation classification by predictive model” value is “R38 irritant”. This molecule also yielded a pH in series [2] of 5.80.

The values above are taken from US20130143830A1, “AGENTS FOR COMBATING AND REDUCING THE IRRITATING ACTION OF SURFACTANTS IN COMPOSITIONS TO BE APPLIED TO THE SKIN FOR CARE OR CLEANSING OF THE FACE AND BODY” (GIULIANI S.P.A, priority 2008, published 2013).
